Assay [1] deals with T1, AM79 EPSPS.
T1 construct: gene aroA; aroA in pET-28a, stop codon removed so two His tags (N- and C-terminal), E. coli Rosetta (DE3), Ni-NTA purified; printed residues Ala107, Phe114, Ala355, His356, Glu357
Briefly: Pi release (Lanzetta reagent, […] nm); Michaelis-Menten fit. The assay is classed as biochemical, uncultured soil bacterium. Particulars: 1 mM S3P, no glyphosate, 50 mM HEPES-NaOH pH 7.0, 100 mM KCl, 2 mM DTT, 25 °C; read-out: K m (PEP; μM).

The target in the next assay is T2, G2 EPSPS (Pseudomonas fluorescens, UniProt A1Z0H6).
T2 construct: gene aroA
In words: Pi release (Lanzetta reagent, […] nm); Km(obs) of PEP versus glyphosate. It counts as biochemical. Particulars: 1 mM S3P, varied PEP, 50 mM HEPES-NaOH pH 7.0, 100 mM KCl, 2 mM DTT, 25 °C; competitive with PEP; read-out: K i (glyphosate; μM).

A further assay addresses T3, A1501 EPSPS (Stutzerimonas stutzeri, UniProt A4VLZ3).
T3 construct: gene aroA
The description is as above. The assay is classed as biochemical. Particulars: 1 mM S3P, varied PEP, 50 mM HEPES-NaOH pH 7.0, 100 mM KCl, 2 mM DTT, 25 °C; competitive with PEP; read-out: K i (glyphosate; μM).

The target of assay [2] is T1, AM79 EPSPS. The assay is described as above. The assay is classed as biochemical, uncultured soil bacterium. Particulars: 1 mM S3P, varied PEP, 50 mM HEPES-NaOH pH 7.0, 100 mM KCl, 2 mM DTT, 25 °C; competitive with PEP; read-out: K i (glyphosate; μM).

`C=C(OP(=O)(O)O)C(=O)O` [PEP]: the Km in the assay on AM79 EPSPS [1] turned out to be 14.59 ± 0.11 µM.

With `O=C(O)CNCP(=O)(O)O` [glyphosate, N-phosphonomethyl glycine], the figures for the Ki at G2 EPSPS, at A1501 EPSPS and at AM79 EPSPS [2] were 44.7 ± 5.2 µM, 467 ± 30.2 µM and 154 ± 4.06 µM, respectively.

These data come from article PMC3371024, “A Novel 5-Enolpyruvylshikimate-3-Phosphate Synthase Shows High Glyphosate Tolerance in Escherichia coli and Tobacco Plants” (PLoS ONE, 2012).
